Several values for one entry are separate records, joined by “and”; a condition that tells them apart may be missing. Equal entries are not always repeated. Entries after “also recorded” stand apart in the source; their conditions may differ.
What was measured:
SU2 envelope peptide = test: Seroconversion ELISA after the virulence test, SU2 peptide; type: in vivo, cats; details: ELISA, seral dilution 1/25; individual cats
Method: (§1) The cats are subjected to a virulence test, one week after the final immunization, by means of an intraperitoneal inoculation of 10 CID50 of FIV Wo isolate, one CID50 corresponding to the dose capable of infecting 50% of the cats.
(§2) The production on of antibodies is evaluated before the test by means of an ELISA using an immobilized peptide (SU2, SU5, TM2 or TM3-19) and immunoprecipitation. After the test, the seroconversion is monitored by an ELISA using immobilized envelope peptides and a recombinant FTV capsid protein.
(§3) The ELISA with the immobilized envelope peptides corresponding to the immunogenic domains SU2 and TM2 and with the immobilized recombinant p25 protein (FIV capsid protein) is carried out as described in Avraméas A. et al. (Res. Virol., 1993, 144, 209-218).
(§4) Microplates (Immunolon II, Dynatech) are coated with 0.5 μg/well for the peptides and with 0.1 μg/well for the p25 protein.
(§5) The tests are carried out in duplicate and the results are expressed as average values.
(§6) After the test, the seroconversion against the envelope peptides and the p25 protein is evaluated at serum dilutions of 1/25 and 1/100, respectively.
(§7) The absorbance values (at 405 nm) are corrected by subtraction of the absorbance values obtained by binding with an immobilized control peptide.
(§8) The tests are normalized with reference to the binding of a mixture of serum from cats infected with FIV with a peptide representing the immunodominant domain of the FIV transmembrane glycoprotein (TM2) (Avraméas A. et al., Res. Virol., 1993, 144, 209-218).

FIV Wo isolate = test: Plasmatic viral load by competitive RT-PCR after the virulence test; type: in vivo, cats; details: after test with 10 CID50 of Wo isolate, relative to control cats, FIG. 3
Method: (§9) Groups of four cats 4½ months old are immunized subcutaneously with 120 μg of FIV peptide (approximately 250 μg of peptide coupled to KLH (keyhole limpet haemocyanin)), emulsified in complete Freund's adjuvant.
(§10) Four repeat immunizations are administered subcutaneously in an incomplete Freund's adjuvant, generally at intervals of 2-3 weeks, although the interval between the last 2 […] was 7 weeks.
as §1
The plasma is filtered (0.45 μm) and the RNA not associated with cells is extracted directly from the filtered plasma using the Viral RNA kit (Qiagene) and eluted in 50 μl of water according to the manufacturer's instructions, and the RNA is then divided into aliquots and stored at −80° C.
A conserved region of the FIV gag gene is selected as a target sequence for the reverse transcription of the competitive RNA and the overlapping PCR amplification.
For the synthesis of the cDNA, 2.5 μl of viral RNA are mixed with 2.5 μl containing different numbers of copies of competitive RNA; typically, the various samples of competitive RNA are prepared using 5 semi-logarithmic dilutions, straddling the number of copies estimated in the biological sample.
The RNA is denatured at 65° C. for 5 minutes and immediately placed on ice. The reagents for the reverse transcription (15 μl) are added.
The final reaction mixtures contain 0.3 U/ml of random hexanucleotides (sequences of 6 randomly aligned nucleotides which make it possible theoretically to amplify any RNA fragment) (Pharmcia), 0.5 mM of dNTP, 10 mM of DTT, 1× of commercial buffer (Gibco BRL) and 100 U of Superscript II (Glbco BRL), in a volume of 20 μl.
The reactions are first carried out at 25° C. for 10 minutes to promote the hybridization of the primers, and then at 42° C. for 50 minutes. The reverse transcriptase is inactivated by incubation at 95° C. for 5 minutes.
The highly conserved sequences are selected as primers. The complementary DNA is amplified by overlapping PCR, using:
For the first amplification, the PCR reagents (80 μl) are added as a mixture with 20 μl of cDNA.
The DNA is denatured at 94° C. for 3 minutes, subjected to 28 cycles of amplification (94° C. 30 s/55° C. 30 s/72° C. 30 s) and to an elongation at 72° C. for 7 minutes.
For the overlapping amplification, 2 μl of the product of the first amplification is transferred into 98 μl of reaction mixture containing 200 μM of dNTP, 1.5 mM of MgCl2, 0.5 μM of each internal primer, 1× of commercial buffer (Gibco BRL) and 0.25 U of Taq polymerase (Gibco BRL).
The DNA is denatured at 94° C. for 3 minutes, subjected to 28 cycles of amplification (94° C. 30 s/52° C. 30 s/72° C. 30 s) and to an elongation at 72° C. for 7 minutes.
The amplification products (10 μl ) are subjected to electrophoresis on 2.75% agarose gel.
Digital images of the gels stained with ethidium bromide are obtained using the Appligene Imager and the densitometry analyses are carried out with the Image NIH software. The density of the competitive product is adjusted as a function of the difference between the length of the native sequence and that of the competitive sequence.
The logarithm of the ratio:density or competitive product/density of the native product, is plotted as a function of the logarithm of the number of copies of competitive RNA added to each reaction.
The best adjustment is determined by the least-squares method and the number of copies of native RNA corresponds to the intersection of the axis of the Xs (Piatak M. Jr. et al., Biotechniques, 1993, 14, 70-80).
The cumulative area under the curve (Dawson J., Drug Information J., 1994, 28, 723-732) is calculated from graphs illustrating the ratio: copies of viral RNA/ml of plasma/time, and compared with the Mann-Whitney test.

[1] = tested on: immobilized peptide (SU2, SU5, TM2 or TM3-19); test: ELISA anti-peptide titre during the immunization of cats; type: in vivo; details: individual cats immunized with KLH-coupled peptide; absorbance at 405 nm greater than 0.1
Method: as §9, §10, §2, §3, §4, §5
The anti-peptide titres before the test are expressed as the logarithm of the inverse of the last dilution of serum which gives an absorbance (at 405 nm) of greater than 0.1.

[2] = tested on: p25 recombinant FIV capsid protein; test: Seroconversion ELISA after the virulence test, p25; type: in vivo, cats; details: ELISA, seral dilution 1/100; individual cats
Method: as §1, §2, §3, §4, §5, §6, §7, §8

[3] = tested on: envelope glycoproteins of the Petaluma strain; test: Immunoprecipitation of envelope glycoproteins by sera (metabolically labelled FL-4 cells); type: in vivo, FIV; details: lysates of chronically infected FL-4 cells; groups of four cats
Source text: The sera collected on the day of the test (at a dilution of 1/40) are used to immunoprecipitate the envelope glycoproteins derived from the metabolically labelled FL-4 cells and feline mononuclear cells (PBM cells) infected with the FIV Wo strain, as described in G. Pancino et al. (Virology, 1995, 206, 796-806).
The recognition of the envelope glycoproteins is estimated by immunoprecipitation of the biosynthetically labelled envelope glycoprotein with sera collected on the day of the test, as summarized in Table I.

FIV Petaluma strain = test: Neutralization of infection of CrFK cells by sera of immunized cats; type: cell-based; details: CrFK cell line
Method: The detection of antibodies neutralizing the infection of the CrFKs with the FIV Petaluma strain is carried out as described previously (Richardson J. et al., J. Gen. Virol., 1996, 77, 759-771).
To evaluate the function of the antibodies, the feline sera directed against the SU2 peptide are tested for their neutralizing value with respect to the infection of CrFK cells with the FIV Petaluma strain.

CD4+ T lymphocytes = test: Counting of circulating CD4+ T lymphocytes by flow cytometry; type: in vivo, cats; details: acute infection with FIV Wo, FIG. 2
Method: Counting of the CD4^+ T lymphocytes is carried out at regular intervals before the test, on the day of the test and at regular intervals during the acute infection.
The CD4^+ T lymphocytes are counted by flow cytometry, using monoclonal antibodies (Clinisciences).
To evaluate the effect of the immunization on the pathology associated with a primary infection, circulating CD4^+ lymphocytes are counted before and after the test with the FIV Wo strain.

TM2 envelope peptide = test: Seroconversion ELISA after the virulence test, TM2 peptide; type: in vivo, cats
Method: as §1, §2, §3, §4, §5, §6, §7, §8

[4] = ELISA, seral dilution 1/25, individual cats

## SU5: peptide of the SU5 domain of the FIV surface envelope glycoprotein, SEQ ID NO: 3, used as immunogen (QVVKQPDYLVVPGEVMEYKPRR)
SU2 envelope peptide
  Binding of the sera to SU2, 3 weeks after the virulence test: 0 optical density
  Binding of the sera to SU2, 4 weeks after the virulence test: 1.9 optical density and 0.5 optical density and 0 optical density (2×)
  Binding of the sera to SU2, 5 weeks after the virulence test: 2.4 optical density and 0.7 optical density and 0.1 optical density and 0 optical density
FIV Wo isolate
  course of the primary infection (viral RNA in plasma, viral dissemination): the acute infection of 3 cats followed kinetics similar to those of the control cats, while infection in one of the cats appears in a retarded manner; also recorded: do not modify the course of the infection
[1]
  Anti-peptide titre, 1st injection: 5.01 logarithm of the inverse of the last dilution of serum and 5.31 logarithm of the inverse of the last dilution of serum and 4.71 logarithm of the inverse of the last dilution of serum and >5.61 logarithm of the inverse of the last dilution of serum
  Anti-peptide titre, 2nd injection: 5.31 logarithm of the inverse of the last dilution of serum (3×) and 5.01 logarithm of the inverse of the last dilution of serum
  Anti-peptide titre, Day of the test: 4.71 logarithm of the inverse of the last dilution of serum and 5.01 logarithm of the inverse of the last dilution of serum (3×)
[2]
  Binding of the sera to p25, 3 weeks after the virulence test: 0.1 optical density and 0 optical density (3×)
  Binding of the sera to p25, 4 weeks after the virulence test: 2.7 optical density and 1.0 optical density and 0.2 optical density and 0 optical density
  Binding of the sera to p25, 5 weeks after the virulence test: 2.9 optical density and 2.2 optical density and 0.8 optical density and 0 optical density
[3]
  cats whose sera immunoprecipitate the envelope glycoproteins of the Petaluma strain: all the cats
FIV Petaluma strain
  neutralizing antibodies in sera of immunized cats: do not neutralize
CD4+ T lymphocytes
  number of CD4+ lymphocytes after the infection: gradual reduction
TM2 envelope peptide; [4]
  Binding of the sera to TM2, 3 weeks after the virulence test: 2.3 optical density and 0 optical density (2×) and 0.1 optical density
  Binding of the sera to TM2, 4 weeks after the virulence test: 2.9 optical density and 2.8 optical density and 2.4 optical density and 0 optical density
  Binding of the sera to TM2, 5 weeks after the virulence test: 3.0 optical density and 3.1 optical density and 2.8 optical density and 0 optical density
TM2 envelope peptide; at 4 weeks after the test
  response against the TM2 peptide: developed a large response

Reference: patent publication US6391304B1, “Peptides derived from the ENV gene of the feline immunodeficiency virus and their applications” (Centre National de la Recherche Scientifique, priority 1997, dated 2002)
